The values that follow come from patent US20230203060A1 (GENFLEET THERAPEUTICS (SHANGHAI) INC., priority 2020, published 2023).

By IC50 is commonly meant the concentration that inhibits the measured activity by half.

In test [1] the test system is phosphorylated ERK downstream of KRAS G12C in MIA PaCa2 cells. The test is described as follows: Cell p-ERK detection experiment (HTRF) in MIA PaCa2. The note with it: MIA PaCa2 cells, 2 hours with compound, Advance ERK phospho-T202/Y204 HTRF kit, read-out: p-ERK IC50. Type of test: cell-based, human. In outline:
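KRAS G12C-mutant MIA PaCa2 cells (2.5E4 per well, overnight) exposed 2 h to a 3.16-fold compound dilution series at 0.1% DMSO. Lysates probed 4 h with HTRF antibodies to ERK phospho-T202/Y204; inhibition versus DMSO control and blank, IC50 by four-parameter fit.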
(In general: TR-FRET usually uses a lanthanide donor and a delayed reading to cut background.)

For test [2], the system named is KRAS G12C mutant MIA PaCa-2 cells. The test is described as follows: Cell proliferation inhibition experiment, 3D spheroid, CellTiter-Glo, MIA PaCa-2. The test is classed as cell-based, human. Particulars: 3D cell model in 384-well spheroid plate, 5 days, CellTiter-Glo, read-out: MIA-PaCa2 IC50. In outline:
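200 MIA PaCa-2 cells/well grown overnight as 3D spheroids, then exposed to 3.16-fold compound dilutions (0.1% DMSO final) for 5 days. Viability read by CellTiter-Glo luminescence; inhibition calculated against DMSO and medium-only controls, and IC50 fitted by four-parameter model.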
For orientation: Cellular ATP, detected with luciferase, serves as a proxy for viable cell number.

The mark [3] stands for this setting: Homo sapiens, MIA PaCa-2, 120 h.

Read-outs that look alike come from different tables or passages of the source.

As for `C=CC(=O)N1CCN2C(=O)c3c(Nc4c(C)ccnc4C(C)C)nc(-c4c(O)cccc4F)c(Cl)c3OC[C@H]2C1` [Z5, (6aR)-8-acryloyl-4-chloro-3-(2-fluoro-6-hydroxyphenyl)-1-((2-isopropyl-4-methylpyridin-3-yl)amino)-6,6a,7,8,9,10-hexahydro-12H-pyrazino[2,1-c]pyrido[3,4-f][1,4]oxazepin-12-one], the IC50 in test [1] (Homo sapiens, MIA PaCa-2, 2 h) came to 163 nM; in test [2] (setting [3]), 143 nM.
Take `C=CC(=O)N1CCN2C(=O)c3c(N(C)c4c(C)ccnc4C(C)C)nc(-c4c(O)cccc4F)c(Cl)c3OC[C@H]2C1` [Z6, (6aR)-8-acryloyl-4-chloro-3-(2-fluoro-6-hydroxyphenyl)-1-((2-isopropyl-4-methylpyridin-3-yl)(methyl)amino)-6,6a,7,8,9,10-hexahydro-12H-pyrazino[2,1-c]pyrido[3,4-f][1,4]oxazepin-12-one]: the IC50 in test [1] (Homo sapiens, MIA PaCa-2, 2 h) came out at 128 nM; in test [2] (setting [3]), 17 nM.
Regarding `C=CC(=O)N1CCN2C(=O)c3c(N4C[C@@H](O)C[C@@H]4C)nc(-c4c(O)cccc4F)c(Cl)c3OC[C@H]2C1` [Z260, (6aR)-8-acryloyl-4-chloro-3-(2-fluoro-6-hydroxyphenyl)-1-((2S,4S)-4-hydroxy-2-methylpyrrolidin-1-yl)-6,6a,7,8,9,10-hexahydro-12H-pyrazino[2,1-c]pyrido[3,4-f][1,4]oxazepin-12-one], the half-maximal inhibitory concentration (IC50) in test [1] (Homo sapiens, MIA PaCa-2, 2 h) amounted to 91 nM; in test [2] (setting [3]), 4.4 nM.
For `C=CC(=O)N1CCN2C(=O)c3c(N4CCN(CCO)C[C@@H]4C)nc(-c4c(O)cccc4F)c(Cl)c3OC[C@H]2C1` [Z257, (6aR)-8-acryloyl-4-chloro-3-(2-fluoro-6-hydroxyphenyl)-1-((S)-4-(2-hydroxyethyl)-2-methylpiperazin-1-yl)-6,6a,7 ,8,9,10-hexahydro-12H-pyrazino[2,1-c]pyrido[3,4-f][1,4]oxazepin-12-one] the same measures were 104 nM and 11.3 nM.
For `C=CC(=O)N1CCN2C(=O)c3c(N4CC(N(C)C5COC5)CC4(C)C)nc(-c4c(O)cccc4F)c(Cl)c3OC[C@H]2C1` (single isomer, unassigned) [Z331-1] the same measures were 6 nM and 1.1 nM.
Regarding `C=CC(=O)N1CCN2C(=O)c3c(C4NCCN5C(=O)CCC45C)nc(-c4c(O)cccc4F)c(Cl)c3OC[C@H]2C1` (stereo partly drawn) [Z337, (6aR)-8-acryloyl-4-chloro-3-(2-fluoro-6-hydroxyphenyl)-1-(8a-methylhexahydropyrrolo[1,2-a]pyrazin-6 (2H)-one-1-yl)-6,6a,7,8,9,10-hexahydro-12H-pyrazino[2,1-c]pyrido[3,4-f][1,4]oxazepin-12-one], the values for the half-inhibitory concentration (IC50) in test [1] and in test [2] were 154 nM and 16 nM, respectively.
